Here are results for one sequence from patent publication US11179437B2, “COP9 signalosome (CSN) complex modulators and uses thereof” (Yeda Research and Development Co. Ltd., priority 2017, dated 2021).

For one experiment, the system named is cells. The experiment can be described thus: Cell death in cells exposed to the C-terminal peptide. Type of experiment: cell-based.
The test system of another experiment is HAP1 cells. Kind of experiment: Cell cycle analysis by flow cytometry (double thymidine block or asynchronous BrdU/propidium iodide). In kind it is cell-based, human. Particulars: WT cells expressing or exposed to the C-terminal CSNAP segment; release from double thymidine block (FIG. 9). (In general: A flow cytometer gives signals particle by particle.)

Experimental for HAP1 cells: UV treated cells were exposed to 5 J/m^2 dose at release, and fixed with ethanol at different time points. Cell cycle phases were assessed by flow cytometry (LSRII, BD Biosciences) following propidium iodide staining. Asynchronous cells were analyzed using propidium iodide and BrdU double staining. 10^5 cells were denatured after fixation using 2N HCl, 0.5% Triton X-100 in PBS for 30 minutes, neutralized in 0.1M Na2B4O7 pH8.5 and incubated with 5 μl of anti-BrdU-FITC (eBioscience 11-5071-41) 1% BSA, 0.5% Triton X-100 in PBS for 1 hour. Cells were washed in 1% BSA in PBS and resuspended in PBS containing 50 μg/ml propidium iodide and 50 μg/ml RNAse A, and analyzed in FACSAria Fusion flow cytometer (BD Biosciences).

Consider “DFFNDFEDLFDDDDIQ [C-terminal peptide, peptide comprising the C-terminal region of CSNAP, responsible for assembly into the CSN complex]”, for which the “induction of cell death” value in the experiment on cells is reported as “induce cell death”. In addition, in the experiment with HAP1 cells, the cell cycle progression result is “capable of preventing cell cycle progression”.
